Results taken from patent US20070270484A1, “3'-N-Substituted-3-O-Substituted Erythronolide a Derivatives” (priority 2003, published 2007).

Key:
[1] = tested on: S. pneum 1294 (mef); test: microbe, parasite or virus in culture; assay type: cell-based, streptococcus pneumoniae; conditions: agar dilution, 18-24 hours, 35±2° C., 5% CO2; mef: efflux pump mef genes
Protocol: (§1) Drug dilutions and the agar plates are prepared by NCCLS method. Inoculum is prepared by direct colony suspensions in normal saline and adjusted to 0.5 McFarland turbidity and subsequently diluted as per NCCLS guidelines in order to obtain 10^4 CFU/spot. CFU/ml of a few randomly selected cultures is performed. The cultures are replicated on the agar plates using replicator (Denley's multipoint). The plates are incubated at 35±2° C. and in 5% CO2 atmosphere (for respiratory and Haemophilus strains) for 18-24 hours at 35±2° C. Minimum inhibitory concentrations (MIC) are determined after 18-24 hours. Q. C. strains are also included in each run of the study. The cation content of Mueller Hinton agar is checked by performing disk […] of 10 μg gentamicin disk against Pseudomonas aeroginosa ATCC 27853. The zone of inhibition should fall between 16-21 mm. The concentration of drug at which there is complete disappearance of growth spot or formation of less than 10 colonies per spot is considered as MIC.

[2] = tested on: S. pneum 1275 (erm); test: microbe, parasite or virus in culture; assay type: cell-based, streptococcus pneumoniae; conditions: agar dilution, 18-24 hours, 35±2° C., 5% CO2; erm: ribosomal modification (mutation) erm genes
Protocol: as §1

[3] = tested on: S. pneum AB 30 (erm); test: microbe, parasite or virus in culture; assay type: cell-based, streptococcus pneumoniae; conditions: agar dilution, 18-24 hours, 35±2° C., 5% CO2; erm: ribosomal modification (mutation) erm genes
Protocol: as §1

[4] = tested on: S. pneum AB 14 (erm); test: microbe, parasite or virus in culture; assay type: cell-based, streptococcus pneumoniae; conditions: agar dilution, 18-24 hours, 35±2° C., 5% CO2; erm: ribosomal modification (mutation) erm genes
Protocol: as §1

[5] = tested on: S. pneum 1256 (erm); test: microbe, parasite or virus in culture; assay type: cell-based, streptococcus pneumoniae; conditions: agar dilution, 18-24 hours, 35±2° C., 5% CO2; erm: ribosomal modification (mutation) erm genes
Protocol: as §1

[6] = tested on: S. pneum AB 29 (erm); test: microbe, parasite or virus in culture; assay type: cell-based, streptococcus pneumoniae; conditions: agar dilution, 18-24 hours, 35±2° C., 5% CO2; erm: ribosomal modification (mutation) erm genes
Protocol: as §1

[7] = tested on: S. pneum 1251 (mef); test: MIC, agar incorporation method (NCCLS agar dilution method); assay type: cell-based, streptococcus pneumoniae; conditions: 18-24 hours, 35±2° C., 5% CO2, mef: efflux pump mef genes
Protocol: as §1

[8] = tested on: S. pneum CS 1687 (mef); test: as above; assay type: cell-based, streptococcus pneumoniae; conditions: 18-24 hours, 35±2° C., 5% CO2, mef: efflux pump mef genes
Protocol: as §1

[9] = tested on: S. pneum AB 34 (mef); test: as above; assay type: cell-based, streptococcus pneumoniae; conditions: 18-24 hours, 35±2° C., 5% CO2, mef: efflux pump mef genes
Protocol: as §1

[10] = tested on: S. pneum ATCC 49619; test: as above; assay type: cell-based, streptococcus pneumoniae; conditions: 18-24 hours, 35±2° C., 5% CO2
Protocol: as §1

[11] = tested on: S. pneum ATCC 6303; test: as above; assay type: cell-based, streptococcus pneumoniae; conditions: 18-24 hours, 35±2° C., 5% CO2
Protocol: as §1

[12] = tested on: H. inflenza ATCC 49247; test: as above; assay type: cell-based, Haemophilus influenzae; conditions: agar dilution, 18-24 hours, 35±2° C., 5% CO2
Protocol: Minimum inhibitory concentrations (μg/ml) were obtained for representative compounds of the invention, which are given in Table 2.
as §1

[13] = tested on: MoraXella MI; test: as above; assay type: cell-based; conditions: 18-24 hours, 35±2° C.
Protocol: as §1

## CC[C@H]1OC(=O)[C@H](C)[C@@H](O[C@H]2C[C@@](C)(OC)[C@@H](O)[C@H](C)O2)[C@H](C)[C@@H](O[C@@H]2O[C@H](C)C[C@H](N(C)C)[C@H]2O)[C@](C)(O)C[C@@H](C)C(=O)[C@H](C)[C@@H](O)[C@]1(C)O [E, erythromycin A, reference compound]
[1]
  Minimum Inhibitory Concentrations, S. pneum 1294 (mef): >16 µg/mL
[2]
  Minimum Inhibitory Concentrations, S. pneum 1275 (erm): >16 µg/mL
[3]
  Minimum Inhibitory Concentrations, S. pneum AB 30 (erm): >16 µg/mL
[4]
  Minimum Inhibitory Concentrations, S. pneum AB 14 (erm): >16 µg/mL
[5]
  Minimum Inhibitory Concentrations, S. pneum 1256 (erm): >16 µg/mL
[6]
  Minimum Inhibitory Concentrations, S. pneum AB 29 (erm): >16 µg/mL
[7]
  Minimum Inhibitory Concentrations, S. pneum 1251 (mef): 8 µg/mL
[8]
  Minimum Inhibitory Concentrations, S. pneum CS 1687 (mef): >16 µg/mL
[9]
  Minimum Inhibitory Concentrations, S. pneum AB 34 (mef): >16 µg/mL
[10]
  Minimum Inhibitory Concentrations, S. pneum ATCC 49619: 0.008 µg/mL
[11]
  Minimum Inhibitory Concentrations, S. pneum ATCC 6303: 0.03 µg/mL
[12]
  Minimum Inhibitory Concentrations, H. inflenza ATCC 49247: >16 µg/mL
[13]
  Minimum Inhibitory Concentrations, MoraXella MI: 0.06 µg/mL

## 3-O-(4-Nitrophenyl)acetyl-5-O-(3′-N-desmethyl-3′-N-ethyl)desoaminyl-6-O-methyl erythronolide A [Compound No. 30]
[1]
  Minimum Inhibitory Concentrations, S. pneum 1294 (mef): 2 µg/mL
[2]
  Minimum Inhibitory Concentrations, S. pneum 1275 (erm): >16 µg/mL
[3]
  Minimum Inhibitory Concentrations, S. pneum AB 30 (erm): >16 µg/mL
[4]
  Minimum Inhibitory Concentrations, S. pneum AB 14 (erm): >16 µg/mL
[5]
  Minimum Inhibitory Concentrations, S. pneum 1256 (erm): >16 µg/mL
[6]
  Minimum Inhibitory Concentrations, S. pneum AB 29 (erm): <0.5 µg/mL
[7]
  Minimum Inhibitory Concentrations, S. pneum 1251 (mef): 1 µg/mL
[8]
  Minimum Inhibitory Concentrations, S. pneum CS 1687 (mef): 1 µg/mL
[9]
  Minimum Inhibitory Concentrations, S. pneum AB 34 (mef): >16 µg/mL
[10]
  Minimum Inhibitory Concentrations, S. pneum ATCC 49619: 1 µg/mL
[11]
  Minimum Inhibitory Concentrations, S. pneum ATCC 6303: 1 µg/mL
[12]
  Minimum Inhibitory Concentrations, H. inflenza ATCC 49247: >16 µg/mL
[13]
  Minimum Inhibitory Concentrations, MoraXella MI: 4 µg/mL

## CCC1OC(=O)C(C)C(OC(=O)Cc2ccc(F)cc2)C(C)C(OC2OC(C)CC(N(C)Cc3cccc(O)c3)C2O)C(C)(OC)CC(C)C(=O)C(C)C(O)C1(C)O (stereo not drawn) [Compound No. 17, 3-O-(4-Fluorophenyl)acetyl-5-O-[3′-N-desmethyl-3′-N-(3-hydroxy)benzyl] desosaminyl-6-O-methyl erythronolide A]
[1]
  Minimum Inhibitory Concentrations, S. pneum 1294 (mef): 1 µg/mL
[2]
  Minimum Inhibitory Concentrations, S. pneum 1275 (erm): >16 µg/mL
[3]
  Minimum Inhibitory Concentrations, S. pneum AB 30 (erm): >16 µg/mL
[4]
  Minimum Inhibitory Concentrations, S. pneum AB 14 (erm): >16 µg/mL
[5]
  Minimum Inhibitory Concentrations, S. pneum 1256 (erm): >16 µg/mL
[6]
  Minimum Inhibitory Concentrations, S. pneum AB 29 (erm): <0.5 µg/mL
[7]
  Minimum Inhibitory Concentrations, S. pneum 1251 (mef): 1 µg/mL
[8]
  Minimum Inhibitory Concentrations, S. pneum CS 1687 (mef): 1 µg/mL
[9]
  Minimum Inhibitory Concentrations, S. pneum AB 34 (mef): >16 µg/mL
[10]
  Minimum Inhibitory Concentrations, S. pneum ATCC 49619: <0.5 µg/mL
[11]
  Minimum Inhibitory Concentrations, S. pneum ATCC 6303: <0.5 µg/mL
[12]
  Minimum Inhibitory Concentrations, H. inflenza ATCC 49247: >16 µg/mL
[13]
  Minimum Inhibitory Concentrations, MoraXella MI: 8 µg/mL
